Laboratory results reported in PMC4344604, “Synthesis and Biological Evaluation of Carbocyclic Analogues of Pachastrissamine” (Marine Drugs, 2015).
Read-outs that look alike come from different tables or passages of the source.

Tests used:
SphK2 = biological target: T1, SphK2 (Homo sapiens, UniProt Q9NRA0); assay: ADP-Glo kinase assay; assay type: biochemical
T1 construct: commercial enzyme from BPS Bioscience
T1 sequence (Q9NRA0 1-654): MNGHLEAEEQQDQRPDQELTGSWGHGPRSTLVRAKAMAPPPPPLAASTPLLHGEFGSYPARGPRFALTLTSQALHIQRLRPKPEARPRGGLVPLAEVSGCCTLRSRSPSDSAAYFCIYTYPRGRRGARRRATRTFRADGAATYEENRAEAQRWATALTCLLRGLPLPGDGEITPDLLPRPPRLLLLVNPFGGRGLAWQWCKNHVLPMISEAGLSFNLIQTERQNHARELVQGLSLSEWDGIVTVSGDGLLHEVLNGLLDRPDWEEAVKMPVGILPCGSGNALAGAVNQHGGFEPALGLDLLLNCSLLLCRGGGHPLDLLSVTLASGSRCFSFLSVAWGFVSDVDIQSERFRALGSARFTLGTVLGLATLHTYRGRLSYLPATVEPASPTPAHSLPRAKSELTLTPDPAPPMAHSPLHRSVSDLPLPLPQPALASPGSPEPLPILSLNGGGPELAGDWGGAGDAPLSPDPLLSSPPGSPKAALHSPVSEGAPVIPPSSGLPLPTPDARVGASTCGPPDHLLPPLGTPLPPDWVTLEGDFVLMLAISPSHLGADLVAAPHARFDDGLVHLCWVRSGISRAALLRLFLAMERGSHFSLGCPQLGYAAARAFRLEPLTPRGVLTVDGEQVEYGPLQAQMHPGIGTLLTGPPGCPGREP
Text: ADP-Glo kinase assay on SphK2

SphK1 = biological target: T2, SphK1 (Homo sapiens, UniProt Q9NYA1); assay: ADP-Glo kinase assay; assay type: biochemical
T2 construct: commercial enzyme from BPS Bioscience; human given only for the docking structure 3VZB
T2 sequence (Q9NYA1 whole entry): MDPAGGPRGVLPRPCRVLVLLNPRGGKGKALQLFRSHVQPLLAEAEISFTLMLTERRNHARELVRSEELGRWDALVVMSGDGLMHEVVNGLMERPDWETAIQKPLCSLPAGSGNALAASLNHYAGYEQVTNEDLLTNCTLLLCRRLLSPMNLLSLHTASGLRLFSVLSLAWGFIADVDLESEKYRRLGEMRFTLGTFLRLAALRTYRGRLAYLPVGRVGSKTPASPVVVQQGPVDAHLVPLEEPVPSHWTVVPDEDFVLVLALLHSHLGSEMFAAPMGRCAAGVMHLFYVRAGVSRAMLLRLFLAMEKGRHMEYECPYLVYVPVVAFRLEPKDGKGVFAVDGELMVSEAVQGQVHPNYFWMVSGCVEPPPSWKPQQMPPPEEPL

| SMILES | IC50 (SphK2) [µM] | IC50 (SphK1) [µM] | IC50 (SphK2; 1 µM sphingosine, 150 µM ATP, 5 mM MgCl2, pH 7.2, 1% DMSO, 1 h, room temperature) [µM] |
| --- | --- | --- | --- |
| CCCCCCCCCCCCC/C=C/[C@@H](O)[C@H](CO)N(C)C [N,N-dimethylsphingosine] | – | – | 19.9 |
| CCCCCCCCCCCCCC[C@@H]1OC[C@H](N)[C@@H]1O [compound 1, pachastrissamine] | 41.8 | 12 | – |

Next, values leading:

| IC50 (SphK2) [µM] | IC50 (SphK1) [µM] | IC50 (SphK2; 1 µM sphingosine, 150 µM ATP, 5 mM MgCl2, pH 7.2, 1% DMSO, 1 h, room temperature) [µM] | SMILES |
| --- | --- | --- | --- |
| > 100 | 58.2 | – | CCCCCCCCCCCC[C@@H]1CC[C@H](N)[C@@H]1O [4a, (1R,2S,5R)-2-Amino-5-dodecylcyclopentan-1-ol] |
| 20.1 | 7.5 | – | CCCCCCCCCCCCCC[C@@H]1CC[C@H](N)[C@@H]1O [4b, (1R,2S,5R)-2-Amino-5-tetradecylcyclopentan-1-ol] |
| > 100 | 41.3 | – | CCCCCCCCCCCCCCCC[C@@H]1CC[C@H](N)[C@@H]1O [4c, (1R,2S,5R)-2-Amino-5-hexadecylcyclopentan-1-ol] |
